# Measured values: US20150087673A1, “METHODS FOR USING AND BIOMARKERS FOR AMPK-ACTIVATING COMPOUNDS” (RIGEL PHARMACEUTICALS, INC., priority 2013, published 2015)
# System: AMPK
# Experiment: AMPK activation assay (enzyme-linked immunosorbent assay)
# Format: cell-based
# Summary of the method: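 Activator screen performed per well-known kit methods.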
row,SMILES,EC50
1,"N#Cc1ccc(C(=O)N2CCC(NC(=O)c3ccc(C(=O)N4CCN(Cc5ccc(F)cc5)CC4)cn3)CC2)cc1 [Compound 4, N-(1-(4-cyanobenzoyl)piperidin-4-yl)-5-(4-(4-fluorobenzyl)piperazine-1-carbonyl)picolinamide]",500 to 1000 nM
2,"N#Cc1ccc(CN2CCC(NC(=O)c3ccc(C(=O)N4CCNCC4)cn3)CC2)cc1 [Compound 2, N-(1-(4-cyanobenzyl)piperidin-4-yl)-5-(piperazine-1-carbonyl)picolinamide]",> 10000 nM
3,"N#Cc1ccc(OC2CCN(C(=O)c3ccc(C(=O)NC4CCN(Cc5ccc(N6CCCC6)cc5)CC4)nc3)CC2)cc1 [Compound 197, 5-(4-(4-cyanophenoxy)piperidine-1-carbonyl)-N-(1-(4-(pyrrolidin-1-yl)benzyl)piperidin-4-yl)picolinamide]",< 500 nM
4,"CS(=O)(=O)c1ccc(OC2CCN(C(=O)c3ccc(C(=O)Nc4ccc(Oc5ccc(C#N)cc5)nc4)cn3)CC2)cc1 [Compound 459, N-(6-(4-cyanophenoxy)pyridin-3-yl)-6-(4-(4-(methylsulfonyl)phenoxy)piperidine-1-carbonyl)nicotinamide]",< 500 nM
5,"N#Cc1ccc(CN2CCC(NC(=O)c3ccc(C(=O)N4CCC(Oc5cccc(NC(=O)C6CC6)c5)CC4)nc3)CC2)cc1 [Compound 431, N-(1-(4-cyanobenzyl)piperidin-4-yl)-6-(4-(3-(cyclopropanecarboxamido)phenoxy)piperidine-1-carbonyl)nicotinamide]",500 to 1000 nM

# Next, values leading:
row,EC50,SMILES
1,< 500 nM,"COc1ccc(C(=O)C2CCN(C(=O)c3ccc(C(=O)N[C@@H]4CCN(Cc5ccc(OC(F)(F)F)cc5)C[C@@H]4F)cn3)CC2)cc1 (relative stereo) [Compound 461, N-((cis)-3-fluoro-1-(4-(trifluoromethoxy)benzyl)piperidin-4-yl)-6-(4-(4-methoxybenzoyl)piperidine-1-carbonyl)nicotinamide]"
2,< 500 nM,"COc1ccc(CN2CCC(NC(=O)c3ccc(C(=O)N4CCN(Cc5ccc(C#N)cc5)CC4)cn3)CC2)cc1 [Compound 285, 5-(4-(4-cyanobenzyl)piperazine-1-carbonyl)-N-(1-(4-methoxybenzyl)piperidin-4-yl)picolinamide]"
3,< 500 nM,"CS(=O)(=O)c1ccc(N2CCN(C(=O)c3ccc(C(=O)NC4CCN(Cc5ccc(C#N)cc5)CC4)nc3)CC2)cc1 [Compound 250, N-(1-(4-cyanobenzyl)piperidin-4-yl)-5-(4-(4-(methylsulfonyl)phenyl)piperazine-1-carbonyl)picolinamide]"
4,< 500 nM,"Cc1nc(Oc2ccc(C#N)cc2)ccc1NC(=O)c1ccc(C(=O)N2CCC(C(=O)c3ccc(F)cc3F)CC2)nc1 [Compound 479, N-(6-(4-cyanophenoxy)-2-methylpyridin-3-yl)-6-(4-(2,4-difluorobenzoyl)piperidine-1-carbonyl)nicotinamide]"
5,< 500 nM,"N#Cc1ccc(CN2CCC(NC(=O)c3ccc(C(=O)N4CCC(C(=O)c5ccc(-n6cccn6)cc5)CC4)cn3)CC2)cc1 [Compound 375, 5-(4-(4-(1H-pyrazol-1-yl)benzoyl)piperidine-1-carbonyl)-N-(1-(4-cyanobenzyl)piperidin-4-yl)picolinamide]"
6,< 500 nM,"CS(=O)(=O)c1ccc(OC2CCN(C(=O)c3ccc(C(=O)Nc4ccc(Oc5ccc(F)cc5)nc4)cn3)CC2)cc1 [Compound 235, N-(6-(4-fluorophenoxy)pyridin-3-yl)-6-(4-(4-(methylsulfonyl)phenoxy)piperidine-1-carbonyl)nicotinamide]"
7,< 500 nM,"N#Cc1ccc(CN2CCC(NC(=O)c3ccc(C(=O)N4CCC(Oc5ccc(SC(F)(F)F)cc5)CC4)cn3)CC2)cc1 [Compound 410, N-(1-(4-cyanobenzyl)piperidin-4-yl)-5-(4-(4-(trifluoromethylthio)phenoxy)piperidine-1-carbonyl)picolinamide]"
8,< 500 nM,"O=C(Nc1ccc(Cc2ccccc2)cc1)c1ccc(C(=O)N2CCN(Cc3ccc(F)cc3)CC2)cn1 [Compound 10, N-(4-benzylphenyl)-5-(4-(4-fluorobenzyl)piperazine-1-carbonyl)picolinamide]"
